In data set [1] the test system is superoxide dismutase (SOD). As to the kind of experiment: SOD activity in substantia nigra (xanthine/xanthine oxidase system). It counts as in vivo, mice. The conditions noted are these: n = 8. The method, then: (§1) C57/BL mice weighted 20-22 g were used. […] The control group was injected with 0.9% saline.
(§2) The formation of thiobarbituric acid reactive species (TBARS) during an acid-heating reaction was determined by the absorbance at 532 nm. The rate of lipid peroxidation was expressed as nmol/mg protein. SOD activity was detected based on its ability to inhibit the superoxide anion free radical of O^2− generated by the xanthine/xanthine oxidase system. The absorbance at 550 nm was monitored and SOD levels were expressed as U/mg protein. The total glutathione (reduced and oxidized form of glutathione) was determined using glutathione reductase. Absorbance was measured at 412 nm using microplate reader. The standard curve was obtained from absorbance of the diluted commercial GSH that was incubated in the mixture as in samples. Results were reported as nmol TNB/mg protein.

In data set [2] the test system is TH-immunoresponsive (TH-IR) neurons in the substantia nigra of MPTP-treated mice. In words: Tyrosine hydroxylase immunohistochemistry: number of TH-IR neurons in substantia nigra. The format is in vivo. The conditions noted are these: mean±SD. On the procedure: as §1
Twenty-four hours later the last injection, mice were anesthetized with chloral hydrate (100 mg/kg). The mice were subjected to thoracotomy and perfusion with ice-cold 0.9% sodium chloride 50 ml, then with 4% paraformaldehyde (PFA) 100 ml in 0.01 M PBS through the left ventricular. After fixation, the brain was post-fixed and then cryoprotected in 30% sucrose for 24 h. The brains were sectioned through the substantia nigra (SN) coronally at 30 um thickness on a cryostat (Leica CM1900, Nussloch, Germany). Sections were collected in 0.01 M PBS and processed free floating. The free floating sections were washed 3 times in Tris-buffered saline (TBS), incubated with H2O2 (3%) for 30 min and blocked with 5% normal goat serum (NGS), 0.2% Triton X-100 in TBS. Sections were incubated for 24 h with primary rabbit anti-TH monoclonal antibody (1:10000) (Watanabe et al., “Protective effects of M, Matsubara, Imai Y, Araki T. neuronal nitric oxide synthase inhibitor in mouse brain against MPTP neurotoxicity: an immunohistological study,” Eur Neuropsychopharmacol. 14:93-104 (2004)). Sections were washed in PBS and incubated for 2 hr at room temperature in secondary antibodies: biotinylated goat anti-rabbit (1:500) diluted in blocking buffer. The sections were incubated for 2 hr at room temperature in horseradish peroxidase labeled avidin work […] solution (1:500). TH immunoreactivity was visualized in SN after incubation in DAB and Nickel sulfate salt for 5-10 min. Sections were mounted on slides, dried, dehydrated in graded ethanol, cleared in xylene, and mounted with DPX mounting medium and coverslip. To test the specificity of the immunostaining, control sections were processed in an identical manner but with the primary antibody omitted. After TH-staining, the image of the sections from the substantia nigra were digitalized with NIS-Elements imaging software (Nikon). The number of neurons was measured in the bilateral substantia nigra.

For data set [3], the system named is striatal dopamine (DA) concentration. In words: Assay of striatal dopamine (DA) by HPLC. The format is in vivo, mice. The conditions noted are these: mean±SD. The method, then: as §1
Samples were processed blindly to the treatment conditions for HPLC analysis with electrochemical detector (ECD) using the method by Beyer (Bayer, et al., 2002). Bilaterally corpus striatum tissues were sonicated in 1 ml of pre-colded 0.4 N HClO4. The resulting homogenates were centrifuged twice for 12 min at 12000×g at 4° C. Mobile phase consisting of 0.035 mol/L anhydrous citric acid, 0.09 mol/L without Water-sodium acetate, 0.23 mmol/L sodium alkane sulfonate, 0.13 mmol/L EDTA, 10% methanol (pH4.7). Electrochemical conditions for the experiment were +0.50V. Separation was carried out at a flow rate of 1.0 ml/min. Samples (20 μl) were automatic injected and were quantified by comparison of the area under the curve (AUC) against reference standards. The concentrations of DA were expressed as ng/mg protein of the brain tissue. Protein content was determined in tissue supernatants by the method of Lowry using bovine serum albumin as a standard (Lowry et al., “Protein measurement with the Folin phenol reagent,” J Biol Chem. 193:265-275 (1951)).

Data set [4] has as its system glutathione (GSH) levels in the SNpc. In words: Total glutathione (GSH) level in SNpc using glutathione reductase. The conditions noted are these: mean±SD. It counts as in vivo, mice. On the procedure: as §1, §2
Data set [5] concerns reactive oxygen species (ROS). As to the kind of experiment: ROS level in substantia nigra cells by DCDHF-DA fluorescence. It counts as in vivo, mice. The conditions noted are these: n = 8. The method, then: as §1
The ROS level was measured using 2′,7′-dichlorodihydrofluorescein diacetate (DCDHF-DA). DCDHF-DA which is cell-permeable and non-fluorescent, and, in the presence of ROS it is oxidized inside cells and transformed into a fluorescent compound, 2′,7′-dichlorofluorescein (DCDF), which remains trapped within the cell. To measure the ROS level in substantia nigra, isolated cells (10^5/ml) were incubated with 50 μM DCDHF-DA for 40 min at 37° C. and washed twice in PBS. The fluorescence was monitored in microplate reader (Liu, et al., 2009). For each sample, 10,000 cells were acquired. Data were expressed as an average of fluorescence intensity of analyzed cell population (mean fluorescence intensity±SD).

Data set [6] concerns brain-derived neurotrophic factor (BDNF). In words: BDNF concentration in substantia nigra by ABC-ELISA. To be noted: for BDNF concentration in substantia nigra: mean±SD. On the procedure: C57/BL mice weighted 20-22 g were used. Mice were treated with cysteamine and/or induced by MPTP fresh preparations according to the group assignments. Group assignments (n=8/group) were as follows: (1) saline (control) group, (2) MPTP alone (see below), (3) cysteamine (CS) 20 mg/kg/d alone for two weeks, (4) CS 75 mg/kg/d alone for two weeks, (5) CS 20 mg/kg/d for total 14 days and MPTP was given from day 5 to 9, (6) CS 75 mg/kg/d for total 14 days and MPTP was given from day 5 to 9, (7) simultaneous administration of MPTP and CS 20 mg/kg/d for 5 days followed by CS for additional 9 days, (8) simultaneous administration of MPTP and CS 75 mg/kg/d for 5 days followed by CS for additional 9 days. The control group was injected with 0.9% saline. MPTP (20 mg/kg) was intraperitoneally (i.p.) injected into the mice twice daily at an interval of 12 hrs for the initial 2 days and once per day on day 3-5 (Tremblay et al., “Neuroprotective effects of cystamine in aged parkinsonian mice,” Neurobiol Aging. 27:862-870 (2006)). CS (20 mg/kg/d and 75 mg/kg/day were injected alone for 14 days.
After treatment for 14 days, the animals were sacrificed by decapitation. Tissues were quickly removed from the brain on a Petri dish placed on ice using laboratory microscope (Chan et al., “Development of a high resolution three-dimensional surgical atlas of the murine head for strains 129S1/SvImJ and C57Bl/6J using magnetic resonance imaging and micro-computed tomography,” Neuroscience. 144:604-615 (2007)). Bilateral corpus striatum stored at −80° C. until used for HPLC analysis. Bilateral substantia nigra were immediately homogenized using an Ultrasonic Cell Disruptor (Biologics, Model 150 V/T), and which were centrifuged. The supernatant was used for the estimation of various enzyme activities.
The concentration of BDNF was measured by an ABC-ELISA method, according to the manufacturer's protocol (Beyotime Institute of Biotechnology). […] OD value and BDNF concentration are proportional to the standard curve obtained the standard BDNF concentrations. Data are represented as pg/mg protein.
In general terms: In an ELISA, binding on a coated surface is turned into a signal by an enzyme label.

In another data set the test system is malondialdehyde (MDA). In words: Malondialdehyde (MDA) / TBARS lipid peroxidation in substantia nigra. The format is in vivo, mice. The conditions noted are these: n = 8. The method, then:
as §1, §2

Where [7] appears, read: C20 mg alone (cysteamine 20 mg/kg/d, no MPTP).
The mark [8] stands for this setting: C75 mg alone (cysteamine 75 mg/kg/d, no MPTP).

`CN1CC=C(c2ccccc2)CC1.Cl` [MPTP, 1-methyl-4-phenyl-1,2,3,6-tetrahydropyridine hydrochloride] registered an SOD in data set [1] (MPTP alone, substantia nigra, control 52.55 ± 13.35) of 57.73 ± 9.57 U/mg. Further, in data set [2] (MPTP alone (20 mg/kg i.p., 5 days), control 295.65±47.47), the “number of TH-IR nigral neurons” value is 166.65±58.15. Further, in data set [3] (MPTP alone, control 57.62±12.70), the “striatal DA concentration” value came to 26.38±6.47 ng/mg protein. For the same compound, the “level of GSH in the SNpc” value in data set [4] (MPTP alone, control 3.52±1.44) stood at 0.55±0.36 nmol TNB/mg protein. In data set [5] (MPTP alone, substantia nigra, control 13010 ± 261), this compound showed an ROS of 20207 ± 203 MFI. Further, the “BDNF concentration in substantia nigra” value in data set [6] (MPTP alone, control 78.34±16.09) is reported as 39.55±7.82 pg/mg protein. In the data set with malondialdehyde (MDA) (MPTP alone, substantia nigra, control 7.89 ± 0.65), the MDA turned out to be 10.84 ± 2.65 nmol/mg.

`NCCS` [cysteamine]: the SOD in data set [1] (C20 mg + MPTP (pretreatment)) amounted to 62.11 ± 4.74 U/mg; in data set [1] (setting [7]), 58.88 ± 17.66 U/mg; in data set [1] (C75 mg + MPTP (pretreatment)) it was 58.53 ± 5.82 U/mg; in data set [1] (setting [8]), 59.13 ± 10.66 U/mg; in data set [1] (MPTP + C20 mg (simultaneous)), 66.77 ± 4.64 U/mg; in data set [1] (MPTP + C75 mg (simultaneous)), 59.58 ± 2.24 U/mg. The “number of TH-IR nigral neurons” value in data set [2] (cysteamine 20 mg/kg/d 4 days prior to and along with MPTP (CS20 mg/kg/d+MPTP)) was 262.45±32.75; in data set [2] (cysteamine 75 mg/kg/d alone, no MPTP), 271.05±44.93; in data set [2] (cysteamine 75 mg/kg/d pretreatment + MPTP (CS75 mg/kg/d+MPTP)) it was 172.10±42.69; in data set [2] (simultaneous treatment MPTP+CS20 mg/kg/d) it was 179.5±68.11; in data set [2] (simultaneous treatment MPTP+CS75 mg/kg/d), 174.05±45.78. Besides, the “striatal DA concentration” value in data set [3] (cysteamine 20 mg/kg/d 4 days before and along with MPTP) turned out to be 47.96±10.57 ng/mg protein; in data set [3] (cysteamine 75 mg/kg/d pretreatment + MPTP) it was 25.65±7.71 ng/mg protein; in data set [3] (cysteamine 75 mg/kg/day alone, no MPTP), 32.22±4.71 ng/mg protein; in data set [3] (simultaneous treatment cysteamine 20 mg/kg/d during MPTP), 36.27±16.42 ng/mg protein; in data set [3] (simultaneous treatment cysteamine 75 mg/kg/day during MPTP), 25.08±8.10 ng/mg protein. For the same compound, in data set [4] (pretreatment with low dose cysteamine (20 mg/kg/d) + MPTP), the “level of GSH in the SNpc” value was determined as 3.16±1.28 nmol TNB/mg protein. Besides, the ROS amounted to 17411 ± 589 MFI in data set [5] (C20 mg + MPTP (pretreatment)); 17460 ± 779 MFI in data set [5] (setting [7]); 17411 ± 362 MFI in data set [5] (C75 mg + MPTP (pretreatment)); 17980 ± 419 MFI in data set [5] (setting [8]); 19539 ± 431 MFI in data set [5] (MPTP + C20 mg (simultaneous)); 21976 ± 489 MFI in data set [5] (MPTP + C75 mg (simultaneous)). Moreover, the “BDNF concentration in substantia nigra” value in data set [6] (high dose cysteamine (75 mg/kg/d) + MPTP) came to 55.43±12.15 pg/mg protein; in data set [6] (low dose cysteamine (20 mg/kg/d) + MPTP), 74.22±7.79 pg/mg protein; in data set [6] (low dose cysteamine (20 mg/kg/d) alone, no MPTP) it was 103.36±30.48 pg/mg protein. Also, the “reversal of MPTP-induced decrease of BDNF” value in data set [6] (simultaneous administration of cysteamine (20 or 75 mg/kg/d) with MPTP, both P>0.05) was “did not reverse the decrease of BDNF by MPTP”. Moreover, the MDA in the data set on malondialdehyde (MDA) (C20 mg + MPTP (pretreatment)) is 8.25 ± 0.90 nmol/mg; in the data set with malondialdehyde (MDA) (setting [7]) it was 8.82 ± 2.44 nmol/mg; with malondialdehyde (MDA) (C75 mg + MPTP (pretreatment)) it was 8.56 ± 1.08 nmol/mg; with malondialdehyde (MDA) (setting [8]) it was 8.90 ± 2.14 nmol/mg; in the data set on malondialdehyde (MDA) (MPTP + C20 mg (simultaneous)) it was 9.86 ± 0.91 nmol/mg; in the data set on malondialdehyde (MDA) (MPTP + C75 mg (simultaneous)) it was 9.51 ± 0.57 nmol/mg.

The record behind these values is patent publication US20140288117A1, “USE OF CYSTEAMINE IN TREATING PARKINSON'S DISEASE” (Omega Bio-Pharma (I.P. 2) Ltd, priority 2010, published 2014).
